Measurements as given in patent publication US12000819B2, “Gas concentration prediction method” (DAIKIN INDUSTRIES, LTD., priority 2018, dated 2024).

Assay: Concentration of gas dissolved in cell culture liquid or pure water after bubbling, measured by gas chromatography
Assay type: physicochemical
Conditions: for Correction coefficient α: ratio of average gas concentrations in cell culture liquid and pure water
Experimental: The gas shown in Table 1 was bubbled at 20 mL/min for 1 minute in 5 mL of a cell culture medium (liquid containing 6.4 g/L of sodium chloride, 4.7 g/L of D-glucose, 3.7 g/L of sodium bicarbonate, L-lysine hydrochloride, 0.84 g/L of L-arginine hydrochloride, 0.58 g/L of L-glutamine, and 0.3 g/L of calcium chloride) or in 5 mL of purified water, at a liquid temperature of 23° C.; and dissolved. Subsequently, the concentration of a gas dissolved in the cell culture liquid or pure water was measured by gas chromatography (Shimadzu Corporation). Each measurement was repeated three times, and the average gas concentration was calculated. The correction coefficient α was then obtained by dividing the average gas concentration in the cell culture liquid by the average gas concentration in the pure water.
At a later date, the same measurements as above were performed, and the correction coefficient was calculated in the same manner.

[1] = Table 1, gas bubbled at 20 mL/min for 1 minute in 5 mL cell culture medium, liquid temperature 23° C., average of three measurements
[2] = Table 1, gas bubbled at 20 mL/min for 1 minute in 5 mL purified water, liquid temperature 23° C., average of three measurements
[3] = Table 2, repeated at a later date
[4] = Table 2, same measurements repeated at a later date, cell culture medium, 23° C.
[5] = Table 2, same measurements repeated at a later date, purified water, 23° C.

| SMILES | Gas concentration, Cell culture liquid [1] [ppm] | Gas concentration, Pure water [2] [ppm] | Correction coefficient α (Table 1) | Correction coefficient α [3] | Gas concentration, Cell culture liquid [4] [ppm] | Gas concentration, Pure water [5] [ppm] |
| --- | --- | --- | --- | --- | --- | --- |
| C=C(F)C(F)(F)F [CF3—CF═CH2] | 262 | 331 | 1.26 | 1.25 | 288 | 360 |
| FCF [CH2F2] | 2972 | 4140 | 1.39 | 1.36 | 2701 | 3673 |
| FCC(F)(F)F [CH2F—CF3] | 529 | 656 | 1.24 | 1.26 | 599 | 755 |
| FC(F)Cl [CHF2Cl] | 1785 | 2399 | 1.34 | 1.33 | 1820 | 2421 |
